Assay results published in publication PMC7948405, “Small-molecule control of neurotransmitter sulfonation” (The Journal of Biological Chemistry, 2020).

Target: T1, SULT1A3 in HME(+) cells (Homo sapiens, UniProt P0DMM9)
T1 construct: HME cells were transfected with plasmid containing the coding region of either SULT1A3 or a negative control; expressed in transfected cells
Experiment: Ex vivo inhibition of dopamine sulfate (DPS) synthesis in SULT1A3-transfected HME(+) cells
Format: cell-based
Conditions: 100 μM DP, 24 h, parentheses 1 SD
Description: A stable transfectant cell line was constructed to test the ability of CMP12 and CMP13 to suppress catecholamine sulfonation in cultured human cells. […] HME cells were transfected with plasmid containing the coding region of either SULT1A3 or a negative control ([14]) (see Experiment and Transfection protocol). Transfectant isolates were grown to near confluence and harvested, and cell extracts were prepared (see Experiment). SULT1A3 levels in the extracts were assessed by determining SULT activity per μg extract (see Experiment). Activity in extracts of the SULT1A3-positive transfectants ranged from 1 to 85 times the levels present in negative-control extracts. […] Consequently, a transfectant, 1A3(+) with extract activity 42 times that of the negative-control isolate, 1A3(-), was selected for further experiments.
To establish conditions for ex vivo inhibition studies, the DP concentration and time dependence of dopamine sulfate (DPS) synthesis by 1A3(+) cells were assessed. DP and its metabolites (DPS, 3-methoxytyramine [3-MT], 3,4-dihydroxyphenylacetic acid [DOPAC], and homovanillic acid [HVA]) are baseline separable using HPLC and can be quantitated optically at […] (see Experiment and Fig. S1). Only DP and DPS were detected in the cell media, and together, they constituted >95% of the DP initially added to the media. The DPS concentration in the 1A3(+) media at 24 h after DP addition is plotted as a function of DP concentration in Fig. 6B. As is evident, the dose-response curve is linear at concentrations as high as 200 μM DP.
Figure 6 HME(+)-cell DPS synthesis and inhibition. A, Time dependence of DPS formation. DP was added at 100 μM to the growth medium of 60 to 70% confluent HME(+)-cells, and the DPS concentration in the medium was determined at the indicated time intervals. B, DP-concentration dependence of DPS synthesis. The Y-axis indicates the concentration of DPS in the growth media 24 h after DP addition. The X-axis indicates the DP concentration added at t = 0 to the growth medium of 60 to 70% confluent HME(+)-cells. […] The levels of DP (red dots) and DPS (blue dots) were determined 24 h after DP addition. […] A–D, dopamine metabolites were separated and quantitated using HPLC (see Experiment); each data point represents the average of three independent determinations, and the sum of DP and DPS concentrations was ≥95% of the total added DP. […]
Transfectants are grown to 60 to 70% confluency at 37 °C in 12-well plates in the MEM containing neomycin (400 μg ml^−1). […] DP metabolite peaks are baseline separated and detected optically at 280 nm (see Fig. S1). Standard curves were used to quantitate each metabolite (Ɛ280 = 3.2 and 2.8 mM^-1 cm^-1 for DP and DPS, respectively). DPS was detected only in the media of cells that express SULT1A3. […]

T1 sequence (P0DMM9 whole entry): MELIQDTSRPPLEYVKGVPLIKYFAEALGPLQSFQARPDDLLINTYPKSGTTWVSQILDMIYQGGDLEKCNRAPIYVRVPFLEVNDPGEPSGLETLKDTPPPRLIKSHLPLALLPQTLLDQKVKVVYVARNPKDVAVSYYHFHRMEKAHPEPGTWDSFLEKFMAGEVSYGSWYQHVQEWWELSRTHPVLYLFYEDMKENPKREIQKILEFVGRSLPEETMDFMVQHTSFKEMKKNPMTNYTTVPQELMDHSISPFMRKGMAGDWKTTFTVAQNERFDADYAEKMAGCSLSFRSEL

SMILES | % Inhibition at saturation | IC50
CC(C)Cc1ccc2cc(CCC(N)=O)ccc2n1 [CMP12] | 84 (3) % | 260 nM
CC(C)Cc1ccc2cc(/C=C/C(N)=O)cnc2n1 [CMP13] | 95 (2) % | 12 nM
